From US20120251584A1, “Combination pharmaceutical composition and methods of treating diseases or conditions associated with the cardiovascular system” (priority 2010, published 2012)

Assays:
[1] = system: Wistar rats with L-NAME endothelial dysfunction; assay: Correction of endothelial dysfunction simulated by L-NAME in rats; assay type: in vivo, rat
Description: Wistar rats weighed 250-300 g were divided into 4 groups. The 1st group received distilled water 9 ml/kg/day (every day, gastrointestinal introduction). […] The third group received L-NAME (12.5 mg/kg) in combination with a mixture of C12, C30, and C200 homeopathic dilutions of polyclonal rabbit antibodies to human endothelial NO synthase at 9 ml/kg/day. The 4th group received L-NAME ([…]) in combination with a mixture of C12, C30, and C200 homeopathic dilutions of polyclonal rabbit antibodies to human endothelial NO synthase at 9 ml/kg/day and mixture of C12, C30, C200 homeopathic dilutions of polyclonal rabbit antibodies to a C-terminal fragment of AT1 receptor of angiotensin II at 9 ml/kg/day.
Endothelial dysfunction was simulated by introducing L-NAME at […] in the course of 28 days. On day 29 from the beginning of the experiment, under anesthesia (sodium thiopental at 50 mg/kg), a catheter was inserted into the left carotid artery to register parameter of arterial pressure (AP). Bolus introduction of the pharmacological agent was made into right femoral vein. The following parameters were measured: systolic arterial pressure (SAP), diastolic arterial pressure (DAP), and frequency of heart beat, which were measured in real time by sensor TSD104A measurement apparatus MP100 made by Biopac System, Inc., USA. The following functional probes were used: endothelium-dependent vasodilation (EDV), intra-vein introduction of acetylcholine (AC) in the dose of 40 μg/kg, endothelium-independent vasodilation (EIV) via intravein introduction of sodium nitroprusside at 30 μ/kg.
The degree of endothelial dysfunction was evaluated via the coefficient of endothelial dysfunction as the ratio of the area of the triangle under the trend of reaction of stabilization of arterial pressure (AP) as a response to introduction of nitroprusside to the area of the triangle under the trend of reaction of stabilization of arterial pressure as a response to introduction of acetylcholine.

[2] = system: NISAG line male rats with hereditary stipulated stress-sensitive arterial hypertension; assay: NISAG rat hypertension model, systolic blood pressure; assay type: in vivo
Description: Investigations were conducted on 50 NISAG line male rats (weight 300 g, age 4 months) with hereditary stipulated stress-sensitive arterial hypertension, which were divided into 5 groups by 10 animals each.
Two times a week, 2 to 6 hours after administration of ULD antibodies and losartan, systolic blood pressure (SBP) was measured by an indirect method in a tail artery (using a cuff).

[3] = system: female Wistar rats with chronic heart failure (CHF); assay: Chronic heart failure (CHF) model induced by isadrine in rats: electrocardiogram, rheogram, exercise tolerance; conditions: change in % on Day 28 vs. Day 7, gastric gavage
Description: Study of the efficacy of the combined drug based on ultra-low doses (ULD), i.e. the activated-potentiated solutions as described above, of antibodies to a C-terminal fragment of angiotensin II AT1 receptor and antibodies to endothelial NO synthase (mixture of homeopathic dilutions C12, C30 and C200) in chronic heart failure (CHF) was conducted in 75 female Wistar rats (4-5 months old, weighing 220-250 g).
For chronic heart failure modeling all rats were receiving isadrine (isoproterenol hydrochloride, Sigma, Germany) 80 mg/kg twice with 24-hour interval. Animals (15 per group) were receiving the following drugs by gastric gavage: group 1 —7.5 mL/kg of ULD of antibodies against a C-terminal fragment of angiotensin II AT1 receptor (mixture of homeopathic dilutions C12, C30 and C200), group 2 —7.5 mL/kg of ULD of anti-endothelial NO synthase antibodies (mixture of homeopathic dilutions C12, C30 and C200), group 3 —15 mL/kg of combined drug (mixture of homeopathic dilutions C12, C30 and C200), group 4 —7.5 mL/kg (dose of 10 mg/kg) of losartan as a comparator, group 5 (control)—7.5 mL/kg of distilled water.

[4] = functional probe: Acetyl choline 40 μg/kg, day 29
[5] = functional probe: Initial, day 29, L-NAME 28 days
[6] = functional probe: Sodium Nitroprusside, day 29

SMILES	Vascular reaction observed with EDV with acetyl choline ([1]; area under the curve of restoration of arterial pressure, Acetyl choline probe)	Vascular reaction observed with EIV with sodium nitroprusside ([1]; area under the curve of restoration of arterial pressure, Sodium Nitroprusside probe)	DAP [1, 4]	SAP [1, 4]	DAP [1, 5]	SAP [1, 5]	DAP [1, 6]	SAP [1, 6]	CED (coefficient of endothelial dysfunction) ([1]; ratio of nitroprusside area to acetylcholine area)	Δ in comparison with the initial level, in mmHg ([2]; SBP after 28 days vs initial)	% of the initial level ([2]; SBP change after 28 days vs initial)	Initial SBP in mmHg ([2]; before treatment)	SBP after 28 days of medicine administration in mmHg ([2]; per orally once a day for 28 days)	Cardiac output [3]	Heart rate [3]	Systolic volume (by Kubrick) [3]	T-wave amplitude [3]
COC(=O)[C@@H](N)CCCNC(=N)N[N+](=O)[O-] [L-NAME, L-NG-nitroarginine methyl ester]	3700.2 ± 536.9	11922.8 ± 1838.9	64.7 ± 4.3 mm HG	111.3 ± 7.4 mm, HG	164.2 ± 5.9 mm HG	204.8 ± 10 mm, HG	61.4 ± 4.4 mm HG	118.2 ± 9.9 mm, HG	3.5 ± 0.5 relative units								
CCCCc1nc(Cl)c(CO)n1Cc1ccc(-c2ccccc2-c2nn[nH]n2)cc1 [Losartan, losartan]										−33 mmHg	−19%	173.5 mmHg	140.5 mmHg	55.31%	−21.28%	64.01%	−31.64%
